According to PubChem BioAssay AID248 (DTP/NCI, 2004):
Several values for one entry are separate records, joined by “and”; a condition that tells them apart may be missing. Equal entries are not always repeated. Inconclusive results and toxic doses are left out. Cut-off read from the data, not from the text of the source: active = T/C of 150% or more; inactive = T/C below 125%.

Tested on: L1210 leukemia ip in BDF1 mice, survival T/C
Assay: NCI In Vivo Anticancer Drug Screen. Data for tumor model L1210 Leukemia (intraperitoneal) in B6D2F1 (BDF1) mice
Conditions: endpoint: mean survival time, higher = longer survival
In short: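 In this screen, tumor-bearing mice given compound are compared to those given vehicle, and their survival values are reported as a treated-to-control quotient.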

[1] = dose: 100.0 mg/kg/injection, schedule: Q01DX009 (ip), vehicle: Klucel (hydroxypropylcellulose) (HPC)
[2] = dose: 200.0 mg/kg/injection, schedule: Q01DX009 (ip), vehicle: Klucel (hydroxypropylcellulose) (HPC)
[3] = dose: 400.0 mg/kg/injection, schedule: Q01DX009 (ip), vehicle: Klucel (hydroxypropylcellulose) (HPC)
[4] = dose: 100.0 mg/kg/injection, schedule: Q04DX003 (ip), vehicle: Klucel (hydroxypropylcellulose) (HPC)
[5] = dose: 200.0 mg/kg/injection, schedule: Q04DX003 (ip), vehicle: Klucel (hydroxypropylcellulose) (HPC)
[6] = dose: 400.0 mg/kg/injection, schedule: Q04DX003 (ip), vehicle: Klucel (hydroxypropylcellulose) (HPC)
[7] = dose: 100.0 mg/kg/injection, schedule: Q01DX001 (ip), vehicle: carboxymethylcellulose (CMC)
[8] = dose: 50.0 mg/kg/injection, schedule: Q01DX009 (ip), vehicle: saline with Tween-80
[9] = dose: 50.0 mg/kg/injection, schedule: Q01DX009 (ip), vehicle: saline
[10] = dose: 100.0 mg/kg/injection, schedule: Q04DX003 (ip), vehicle: saline
[11] = dose: 200.0 mg/kg/injection, schedule: Q04DX003 (ip), vehicle: saline
[12] = dose: 100.0 mg/kg/injection, schedule: Q01DX009 (ip), vehicle: saline with Tween-80
[13] = dose: 200.0 mg/kg/injection, schedule: Q01DX009 (ip), vehicle: saline with Tween-80
[14] = dose: 100.0 mg/kg/injection, schedule: Q01DX001 (ip), vehicle: saline
[15] = dose: 200.0 mg/kg/injection, schedule: Q01DX001 (ip), vehicle: saline
[16] = dose: 400.0 mg/kg/injection, schedule: Q01DX001 (ip), vehicle: saline

Measured: T/C

CCOC(=O)C(CC(=O)O)C1=CCCc2ccccc21 (stereo unspecified)
inactive: dose: 100.0 mg/kg/injection, schedule: Q01DX001 (ip), vehicle: Klucel (hydroxypropylcellulose) (HPC) 96 % of control | [1] 90 % of control | dose: 200.0 mg/kg/injection, schedule: Q01DX001 (ip), vehicle: Klucel (hydroxypropylcellulose) (HPC) 104 % of control | [2] 91 % of control | dose: 400.0 mg/kg/injection, schedule: Q01DX001 (ip), vehicle: Klucel (hydroxypropylcellulose) (HPC) 90 % of control | [3] 90 % of control

ClC1=C(Cl)C2(Cl)CC(Cl)C1C2(Cl)Cl (stereo unspecified)
inactive: dose: 10.0 mg/kg/injection, schedule: Q01DX001 (ip), vehicle: acetone 105 % of control | dose: 20.0 mg/kg/injection, schedule: Q01DX001 (ip), vehicle: acetone 105 % of control

Cc1ccc2nc3c4ccccc4c4ccccc4c3nc2c1
inactive: [1] 101 % of control | [4] 105 % of control | [2] 102 % of control | [5] 105 % of control | [3] 101 % of control | [6] 98 % of control

Cc1cc2oc(/C=N/O)c(C)c2cc1C
inactive: [1] 99 % of control | [2] 96 % of control | [3] 90 % of control

CN(C)CCOC(=O)c1cccc(CCl)c1
inactive: dose: 45.0 mg/kg/injection, schedule: Q04DX002 (ip), vehicle: saline 106 % of control | dose: 50.0 mg/kg/injection, schedule: Q04DX002 (ip), vehicle: saline 98 % of control | dose: 65.0 mg/kg/injection, schedule: Q04DX002 (ip), vehicle: saline 97 % of control | dose: 100.0 mg/kg/injection, schedule: Q04DX002 (ip), vehicle: saline 97 % of control and 102 % of control | dose: 150.0 mg/kg/injection, schedule: Q04DX002 (ip), vehicle: saline 91 % of control | dose: 200.0 mg/kg/injection, schedule: Q04DX002 (ip), vehicle: saline 94 % of control and 88 % of control | dose: 400.0 mg/kg/injection, schedule: Q04DX002 (ip), vehicle: saline 106 % of control

CC1=CC(C)(C)NC(=S)N1c1ccc(O)cc1
inactive: dose: 75.0 mg/kg/injection, schedule: Q01DX009 (ip), vehicle: saline with Tween-80 92 % of control | dose: 150.0 mg/kg/injection, schedule: Q01DX009 (ip), vehicle: saline with Tween-80 101 % of control | dose: 300.0 mg/kg/injection, schedule: Q01DX009 (ip), vehicle: saline with Tween-80 90 % of control

C/C(=N\Nc1nc2ccccc2o1)c1ccncc1
inactive: dose: 50.0 mg/kg/injection, schedule: Q01DX009 (ip), vehicle: Klucel (hydroxypropylcellulose) (HPC) 105 % of control | [1] 105 % of control | [2] 116 % of control | [3] 108 % of control

O=C(C=P(c1ccccc1)(c1ccccc1)c1ccccc1)c1ccc(Br)cc1
inactive: dose: 50.0 mg/kg/injection, schedule: Q01DX001 (ip), vehicle: carboxymethylcellulose (CMC) 99 % of control | [7] 99 % of control | dose: 200.0 mg/kg/injection, schedule: Q01DX001 (ip), vehicle: carboxymethylcellulose (CMC) 96 % of control | dose: 400.0 mg/kg/injection, schedule: Q01DX001 (ip), vehicle: carboxymethylcellulose (CMC) 99 % of control

CC1(C)/C(=N\N=C2/C3CCC(C3)C2(C)C)C2CCC1C2
inactive: dose: 12.5 mg/kg/injection, schedule: Q01DX009 (ip), vehicle: saline 105 % of control | dose: 25.0 mg/kg/injection, schedule: Q01DX009 (ip), vehicle: saline 100 % of control | [8] 106 % of control | [9] 109 % of control | [10] 109 % of control | [11] 108 % of control

CC(C)(CO)N=Cc1ccccc1O
inactive: dose: 25.0 mg/kg/injection, schedule: Q04DX003 (ip), vehicle: Klucel (hydroxypropylcellulose) (HPC) 96 % of control | dose: 50.0 mg/kg/injection, schedule: Q04DX003 (ip), vehicle: Klucel (hydroxypropylcellulose) (HPC) 104 % of control | [4] 96 % of control

O/N=C/c1nc2ccccc2s1
inactive: [4] 105 % of control | [5] 91 % of control | [6] 118 % of control

OC1CCCCC1(c1ccccc1)c1ccccc1 (stereo unspecified)
inactive: [8] 94 % of control | [12] 91 % of control | [13] 91 % of control

COC1C(O)C(CO)OC1n1cc(F)c(=O)[nH]c1=O (stereo unspecified)
inactive: [14] 107 % of control | [15] 104 % of control | [16] 111 % of control

COc1ccc(OC)c(N=CC(=O)c2ccc(C)cc2)c1
inactive: dose: 75.0 mg/kg/injection, schedule: Q04DX003 (ip), vehicle: Klucel (hydroxypropylcellulose) (HPC) 95 % of control | dose: 150.0 mg/kg/injection, schedule: Q04DX003 (ip), vehicle: Klucel (hydroxypropylcellulose) (HPC) 94 % of control | dose: 300.0 mg/kg/injection, schedule: Q04DX003 (ip), vehicle: Klucel (hydroxypropylcellulose) (HPC) 97 % of control

C=CCc1c(C)ccc(C)c1OC
inactive: [1] 97 % of control | [4] 107 % of control | [2] 95 % of control | [5] 102 % of control | [3] 97 % of control | [6] 102 % of control

CC1OC(O)C(N)C(O)C1O (stereo unspecified)
inactive: [14] 107 % of control | [15] 106 % of control | [16] 106 % of control

COC1CC(OC2OC(CO)C(O)C(O)C2O)/C(=C\C#N)C(O)C1OC (stereo unspecified)
inactive: [9] 106 % of control | dose: 50.0 mg/kg/injection, schedule: Q04DX003 (ip), vehicle: saline 103 % of control | dose: 100.0 mg/kg/injection, schedule: Q01DX009 (ip), vehicle: saline 103 % of control | [10] 100 % of control | dose: 200.0 mg/kg/injection, schedule: Q01DX009 (ip), vehicle: saline 101 % of control | [11] 101 % of control

C=CCSc1ncnc2c1ncn2C1OC(CO)C(O)C1O (stereo unspecified)
active: dose: 99.0 mg/kg/injection, schedule: Q01DX Z (ip), vehicle: saline 162 % of control | dose: 100.0 mg/kg/injection, schedule: Q01DX Z (ip), vehicle: saline 166 % of control | dose: 151.0 mg/kg/injection, schedule: Q01DX Z (ip), vehicle: saline 170 % of control and 181 % of control | dose: 200.0 mg/kg/injection, schedule: Q01DX Z (ip), vehicle: saline 150 % of control | dose: 266.0 mg/kg/injection, schedule: Q01DX001 (ip), vehicle: carboxymethylcellulose (CMC) 150 % of control
inactive: dose: 25.0 mg/kg/injection, schedule: Q01DX Z (ip), vehicle: saline 109 % of control and 120 % of control | dose: 30.0 mg/kg/injection, schedule: Q01DX Z (ip), vehicle: saline 106 % of control | dose: 45.0 mg/kg/injection, schedule: Q01DX Z (ip), vehicle: saline 108 % of control | dose: 78.0 mg/kg/injection, schedule: Q01DX001 (ip), vehicle: carboxymethylcellulose (CMC) 112 % of control | [7] 115 % of control | dose: 118.0 mg/kg/injection, schedule: Q01DX001 (ip), vehicle: carboxymethylcellulose (CMC) 123 % of control | dose: 200.0 mg/kg/injection, schedule: Q01DX009 (ip), vehicle: carboxymethylcellulose (CMC) 93 % of control | dose: 300.0 mg/kg/injection, schedule: Q01DX Z (ip), vehicle: saline 96 % of control | dose: 338.0 mg/kg/injection, schedule: Q01DX Z (ip), vehicle: saline 111 % of control

COC1OC2COC(c3ccccc3)OC2C(OS(=O)(=O)c2ccc(C)cc2)C1OC (stereo unspecified)
inactive: dose: 100.0 mg/kg/injection, schedule: Q04DX002 (ip), vehicle: saline with Tween-80 107 % of control | dose: 200.0 mg/kg/injection, schedule: Q04DX002 (ip), vehicle: saline with Tween-80 89 % of control | dose: 400.0 mg/kg/injection, schedule: Q04DX002 (ip), vehicle: saline with Tween-80 93 % of control

O=C(COc1ccc(Cl)cc1Cl)Nc1cccc2c1C(=O)c1ccccc1C2=O
inactive: dose: 100.0 mg/kg/injection, schedule: Q04DX002 (ip), vehicle: saline + alcohol 96 % of control | dose: 200.0 mg/kg/injection, schedule: Q04DX002 (ip), vehicle: saline + alcohol 100 % of control | dose: 400.0 mg/kg/injection, schedule: Q04DX002 (ip), vehicle: saline + alcohol 96 % of control

CCCCCCCC(=O)N(CCN(N=O)C(=O)CCCCCCC)N=O
inactive: [14] 95 % of control | [16] 90 % of control

O=C(CNC(=O)Nc1nccs1)NNC(=O)Nc1cccc(C(F)(F)F)c1
inactive: [8] 94 % of control | [12] 105 % of control | [13] 102 % of control
